Assays:
[1] = system: IL-2 stimulated STAT5 phosphorylation in Tall-1 human T cell line (JAK3); test: Cellular JAK3 potency assay: inhibition of IL-2 stimulated pSTAT5 in Tall-1 T cells; format: cell-based; details: IL-2 stimulated pSTAT5, Tall-1 T cells
How it was run: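 Tall-1 cells, 45,000 per well, preincubated 1 hour with compound at 37 °C, then stimulated 30 minutes with IL-2 at 300 ng/ml final. pSTAT5 (Tyr694/699) in lysates quantified by AlphaLISA SureFire Ultra. pIC50 derived from inhibition curves, given as mean with SD.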

[2] = molecular target: JAK1 (Homo sapiens (Human), UniProt P23458); test: Biochemical JAK1 kinase assay (LanthaScreen)
Chain of JAK1 (P23458 whole entry): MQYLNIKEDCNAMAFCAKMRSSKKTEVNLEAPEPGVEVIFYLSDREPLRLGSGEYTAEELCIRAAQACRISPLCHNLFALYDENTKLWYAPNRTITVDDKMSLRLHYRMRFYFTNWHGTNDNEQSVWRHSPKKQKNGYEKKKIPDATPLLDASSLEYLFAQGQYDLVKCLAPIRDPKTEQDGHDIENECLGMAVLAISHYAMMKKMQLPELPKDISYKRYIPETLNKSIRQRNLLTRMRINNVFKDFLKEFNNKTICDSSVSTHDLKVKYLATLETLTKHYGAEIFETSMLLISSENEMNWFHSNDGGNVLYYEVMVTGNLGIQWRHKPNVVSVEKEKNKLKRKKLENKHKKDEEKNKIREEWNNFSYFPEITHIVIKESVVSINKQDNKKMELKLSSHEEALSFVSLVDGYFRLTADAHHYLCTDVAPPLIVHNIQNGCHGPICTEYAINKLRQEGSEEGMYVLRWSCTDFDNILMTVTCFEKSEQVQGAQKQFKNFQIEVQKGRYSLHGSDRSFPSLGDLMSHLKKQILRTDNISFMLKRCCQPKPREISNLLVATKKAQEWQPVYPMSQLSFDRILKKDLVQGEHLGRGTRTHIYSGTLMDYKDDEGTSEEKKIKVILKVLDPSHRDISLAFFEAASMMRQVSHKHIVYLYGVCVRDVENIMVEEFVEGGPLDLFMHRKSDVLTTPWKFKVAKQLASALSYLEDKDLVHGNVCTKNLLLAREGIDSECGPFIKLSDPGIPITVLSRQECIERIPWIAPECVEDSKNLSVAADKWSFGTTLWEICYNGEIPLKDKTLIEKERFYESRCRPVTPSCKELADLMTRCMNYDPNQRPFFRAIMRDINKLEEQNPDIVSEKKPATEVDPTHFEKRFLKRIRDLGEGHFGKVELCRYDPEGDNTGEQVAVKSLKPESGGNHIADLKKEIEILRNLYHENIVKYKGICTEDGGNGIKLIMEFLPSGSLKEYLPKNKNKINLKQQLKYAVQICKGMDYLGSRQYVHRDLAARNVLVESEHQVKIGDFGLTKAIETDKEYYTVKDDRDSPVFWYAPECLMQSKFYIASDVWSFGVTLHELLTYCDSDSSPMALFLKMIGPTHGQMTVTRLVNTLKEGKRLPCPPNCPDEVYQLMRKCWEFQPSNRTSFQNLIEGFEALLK
How it was run: (§1)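 GST-JAK + GFP-STAT1 peptide, HEPES pH 7.5/MgCl2/EGTA/Brij-35 buffer; cpd preincubation 1 h RT; ATP start, 1 h RT; stop with 10 mM EDTA + 2 nM Tb-anti-pSTAT1; TR-FRET 520/495. 4-parameter IC50 → pKi (Cheng-Prusoff).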

[3] = molecular target: JAK3 (Homo sapiens (Human), UniProt P52333); test: Biochemical JAK3 kinase assay (LanthaScreen); details: for JAK3 (pKi)-JAK1 (pKi): selectivity JAK3 over JAK1, difference of pKi
Chain of JAK3 (P52333 whole entry): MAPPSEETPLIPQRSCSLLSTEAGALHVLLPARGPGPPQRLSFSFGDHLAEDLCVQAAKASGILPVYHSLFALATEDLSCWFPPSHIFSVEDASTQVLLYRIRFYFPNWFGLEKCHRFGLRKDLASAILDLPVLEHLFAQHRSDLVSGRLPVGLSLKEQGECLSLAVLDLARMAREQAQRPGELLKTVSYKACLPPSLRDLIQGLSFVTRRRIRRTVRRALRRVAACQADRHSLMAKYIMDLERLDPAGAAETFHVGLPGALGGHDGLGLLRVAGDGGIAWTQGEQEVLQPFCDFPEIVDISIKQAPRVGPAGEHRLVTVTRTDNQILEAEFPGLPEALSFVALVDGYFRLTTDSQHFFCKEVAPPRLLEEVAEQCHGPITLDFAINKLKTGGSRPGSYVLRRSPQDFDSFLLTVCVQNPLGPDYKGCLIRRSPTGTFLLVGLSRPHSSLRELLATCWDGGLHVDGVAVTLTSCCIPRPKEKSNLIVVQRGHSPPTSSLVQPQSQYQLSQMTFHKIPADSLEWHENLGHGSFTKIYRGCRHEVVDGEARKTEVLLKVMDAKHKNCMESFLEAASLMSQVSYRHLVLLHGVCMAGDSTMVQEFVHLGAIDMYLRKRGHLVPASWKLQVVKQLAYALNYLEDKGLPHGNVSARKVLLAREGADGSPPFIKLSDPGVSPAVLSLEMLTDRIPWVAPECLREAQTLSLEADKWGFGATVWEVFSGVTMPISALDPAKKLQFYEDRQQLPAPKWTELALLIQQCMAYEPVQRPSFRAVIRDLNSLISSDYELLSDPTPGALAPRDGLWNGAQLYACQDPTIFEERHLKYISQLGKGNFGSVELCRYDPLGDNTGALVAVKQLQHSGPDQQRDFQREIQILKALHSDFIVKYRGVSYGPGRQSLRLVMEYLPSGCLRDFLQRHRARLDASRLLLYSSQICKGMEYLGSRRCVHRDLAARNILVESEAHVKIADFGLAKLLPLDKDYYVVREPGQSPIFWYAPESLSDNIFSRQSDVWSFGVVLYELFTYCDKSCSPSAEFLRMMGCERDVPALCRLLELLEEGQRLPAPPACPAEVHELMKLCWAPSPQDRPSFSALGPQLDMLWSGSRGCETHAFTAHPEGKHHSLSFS
How it was run: as §1

[4] = molecular target: JAK2 (Homo sapiens (Human), UniProt O60674); test: Biochemical JAK2 kinase assay (LanthaScreen)
Chain of JAK2 (O60674 whole entry): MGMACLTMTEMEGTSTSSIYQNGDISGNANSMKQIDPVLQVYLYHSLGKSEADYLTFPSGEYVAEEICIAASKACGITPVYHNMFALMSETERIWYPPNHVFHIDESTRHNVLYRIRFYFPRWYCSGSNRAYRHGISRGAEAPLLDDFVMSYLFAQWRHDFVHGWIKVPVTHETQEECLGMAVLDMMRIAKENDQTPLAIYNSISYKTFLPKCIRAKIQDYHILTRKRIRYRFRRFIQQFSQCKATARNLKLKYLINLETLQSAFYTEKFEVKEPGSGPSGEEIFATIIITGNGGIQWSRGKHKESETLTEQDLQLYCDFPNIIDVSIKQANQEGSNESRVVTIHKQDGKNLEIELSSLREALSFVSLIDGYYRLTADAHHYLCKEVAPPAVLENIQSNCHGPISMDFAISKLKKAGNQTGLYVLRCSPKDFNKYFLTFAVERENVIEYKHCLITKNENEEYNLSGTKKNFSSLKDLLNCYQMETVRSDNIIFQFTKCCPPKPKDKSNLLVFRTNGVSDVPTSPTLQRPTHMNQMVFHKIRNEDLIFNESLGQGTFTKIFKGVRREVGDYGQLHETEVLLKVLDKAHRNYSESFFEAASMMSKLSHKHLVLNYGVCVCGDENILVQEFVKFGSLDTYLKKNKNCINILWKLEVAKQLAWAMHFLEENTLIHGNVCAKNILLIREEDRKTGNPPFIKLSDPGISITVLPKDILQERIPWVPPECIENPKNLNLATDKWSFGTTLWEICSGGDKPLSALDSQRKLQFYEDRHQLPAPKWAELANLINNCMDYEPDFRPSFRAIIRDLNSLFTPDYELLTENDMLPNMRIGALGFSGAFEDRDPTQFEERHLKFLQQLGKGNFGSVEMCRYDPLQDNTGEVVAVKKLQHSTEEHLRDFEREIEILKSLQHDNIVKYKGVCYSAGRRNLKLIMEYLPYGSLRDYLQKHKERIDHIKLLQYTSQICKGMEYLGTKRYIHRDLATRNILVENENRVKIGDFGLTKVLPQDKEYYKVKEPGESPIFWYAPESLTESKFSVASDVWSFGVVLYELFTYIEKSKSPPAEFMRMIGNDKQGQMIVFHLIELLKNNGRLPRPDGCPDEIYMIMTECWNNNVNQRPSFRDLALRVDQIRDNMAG
How it was run: as §1

[5] = molecular target: Tyk2 (Homo sapiens (Human), UniProt P29597); test: Biochemical Tyk2 kinase assay (LanthaScreen)
Chain of Tyk2 (P29597 whole entry): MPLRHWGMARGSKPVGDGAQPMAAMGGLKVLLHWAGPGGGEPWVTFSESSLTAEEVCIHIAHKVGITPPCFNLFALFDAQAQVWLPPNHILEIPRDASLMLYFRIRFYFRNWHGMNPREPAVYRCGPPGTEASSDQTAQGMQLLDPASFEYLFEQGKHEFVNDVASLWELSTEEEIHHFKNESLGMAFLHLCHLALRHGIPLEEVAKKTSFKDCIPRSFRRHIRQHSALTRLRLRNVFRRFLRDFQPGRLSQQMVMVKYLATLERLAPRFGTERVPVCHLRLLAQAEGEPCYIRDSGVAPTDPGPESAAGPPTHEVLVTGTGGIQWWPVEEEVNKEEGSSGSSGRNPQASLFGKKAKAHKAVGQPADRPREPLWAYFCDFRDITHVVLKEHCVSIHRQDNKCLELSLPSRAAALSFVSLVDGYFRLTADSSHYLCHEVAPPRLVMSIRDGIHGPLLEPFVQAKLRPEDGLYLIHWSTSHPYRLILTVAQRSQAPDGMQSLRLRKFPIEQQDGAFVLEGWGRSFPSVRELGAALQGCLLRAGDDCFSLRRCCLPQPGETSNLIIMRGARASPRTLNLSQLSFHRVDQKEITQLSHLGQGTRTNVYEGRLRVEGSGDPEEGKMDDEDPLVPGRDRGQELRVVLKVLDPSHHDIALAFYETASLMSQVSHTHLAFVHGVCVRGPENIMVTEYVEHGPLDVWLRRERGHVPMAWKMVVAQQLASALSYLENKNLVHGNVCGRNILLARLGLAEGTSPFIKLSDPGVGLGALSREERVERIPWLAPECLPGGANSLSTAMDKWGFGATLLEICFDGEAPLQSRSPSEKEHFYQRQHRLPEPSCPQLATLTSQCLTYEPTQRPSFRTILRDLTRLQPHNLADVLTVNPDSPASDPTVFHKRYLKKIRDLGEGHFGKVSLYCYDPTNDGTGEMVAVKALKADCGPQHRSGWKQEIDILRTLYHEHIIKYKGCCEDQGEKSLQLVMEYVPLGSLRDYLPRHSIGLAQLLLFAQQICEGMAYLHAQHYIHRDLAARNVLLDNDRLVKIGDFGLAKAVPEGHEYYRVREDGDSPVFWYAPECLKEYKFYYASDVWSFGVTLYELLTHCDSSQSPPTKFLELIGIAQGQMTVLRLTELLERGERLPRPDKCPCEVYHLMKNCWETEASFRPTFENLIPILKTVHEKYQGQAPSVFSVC
How it was run: as §1

C=CC(=O)N1CCN(CCn2c(=O)ccc3cnc(Nc4cnn(CCOCC)c4)nc32)[C@@H](CC)C1 [Example 221]
Tall-1 (pIC50) [1]: B (B represents a pC50 value between 6.7 (included) and 7.5 (IC50 between 200 nM and 32 nM))
JAK 1 (pKi) [2]: E (E represents a pKi value of 7 or below (Ki of 100 nM or above))
JAK 3 (pKi) [3]: B (B represents pKi value between 9 and 10 (Ki between 1 nM and 0.1 nM))
JAK3 (pKi)-JAK1 (pKi) [3]: A (A represents a value of 3 or above)
JAK 2 (pKi) [4]: E (E represents a pKi value of 7 or below (Ki of 100 nM or above))
Tyk 2 (pKi) [5]: E (E represents a pKi value of 7 or below (Ki of 100 nM or above))

C=CC(=O)N1CC(CCn2c(=O)ccc3cnc(Nc4ccc(OCCO)cc4)nc32)C1 [Example 223]
Tall-1 (pIC50) [1]: B (B represents a pC50 value between 6.7 (included) and 7.5 (IC50 between 200 nM and 32 nM))
JAK 1 (pKi) [2]: E (E represents a pKi value of 7 or below (Ki of 100 nM or above))
JAK 3 (pKi) [3]: A (A represents a pKi value≥10 (Ki≤0.1 nM))
JAK3 (pKi)-JAK1 (pKi) [3]: A (A represents a value of 3 or above)
JAK 2 (pKi) [4]: E (E represents a pKi value of 7 or below (Ki of 100 nM or above))
Tyk 2 (pKi) [5]: E (E represents a pKi value of 7 or below (Ki of 100 nM or above))

C=CC(=O)N1CC(CCn2c(=O)ccc3cnc(Nc4ccc(N(C)CCO)cc4)nc32)C1 [Example 224]
Tall-1 (pIC50) [1]: B (B represents a pC50 value between 6.7 (included) and 7.5 (IC50 between 200 nM and 32 nM))
JAK 1 (pKi) [2]: E (E represents a pKi value of 7 or below (Ki of 100 nM or above))
JAK 3 (pKi) [3]: B (B represents pKi value between 9 and 10 (Ki between 1 nM and 0.1 nM))
JAK3 (pKi)-JAK1 (pKi) [3]: A (A represents a value of 3 or above)
JAK 2 (pKi) [4]: E (E represents a pKi value of 7 or below (Ki of 100 nM or above))
Tyk 2 (pKi) [5]: E (E represents a pKi value of 7 or below (Ki of 100 nM or above))

C=CC(=O)N1CC(CCn2c(=O)ccc3cnc(Nc4ccc(N(C)Cc5ccccc5)cc4)nc32)C1 [Example 225]
Tall-1 (pIC50) [1]: C (C represents a pIC50 value between 6 and 6.7 (IC50 between 1 μM and 200 nM))
JAK 1 (pKi) [2]: E (E represents a pKi value of 7 or below (Ki of 100 nM or above))
JAK 3 (pKi) [3]: B (B represents pKi value between 9 and 10 (Ki between 1 nM and 0.1 nM))
JAK3 (pKi)-JAK1 (pKi) [3]: A (A represents a value of 3 or above)
JAK 2 (pKi) [4]: E (E represents a pKi value of 7 or below (Ki of 100 nM or above))
Tyk 2 (pKi) [5]: E (E represents a pKi value of 7 or below (Ki of 100 nM or above))

C=CC(=O)N1CC(CCn2c(=O)ccc3cnc(Nc4ccn(C)n4)nc32)C1 [Example 226]
Tall-1 (pIC50) [1]: C (C represents a pIC50 value between 6 and 6.7 (IC50 between 1 μM and 200 nM))
JAK 1 (pKi) [2]: E (E represents a pKi value of 7 or below (Ki of 100 nM or above))
JAK 3 (pKi) [3]: B (B represents pKi value between 9 and 10 (Ki between 1 nM and 0.1 nM))
JAK3 (pKi)-JAK1 (pKi) [3]: A (A represents a value of 3 or above)
JAK 2 (pKi) [4]: E (E represents a pKi value of 7 or below (Ki of 100 nM or above))
Tyk 2 (pKi) [5]: E (E represents a pKi value of 7 or below (Ki of 100 nM or above))

C[C@H]1CN(c2ccc(Nc3ncc4ccc(=O)n(CCC5CN(C(=O)/C=C/CN(C)C)C5)c4n3)cc2)CCN1C [Example 227]
Tall-1 (pIC50) [1]: C (C represents a pIC50 value between 6 and 6.7 (IC50 between 1 μM and 200 nM))
JAK 1 (pKi) [2]: E (E represents a pKi value of 7 or below (Ki of 100 nM or above))
JAK 3 (pKi) [3]: B (B represents pKi value between 9 and 10 (Ki between 1 nM and 0.1 nM))
JAK3 (pKi)-JAK1 (pKi) [3]: A (A represents a value of 3 or above)
JAK 2 (pKi) [4]: E (E represents a pKi value of 7 or below (Ki of 100 nM or above))
Tyk 2 (pKi) [5]: E (E represents a pKi value of 7 or below (Ki of 100 nM or above))

C[C@@H]1CN(c2ccc(Nc3ncc4ccc(=O)n(CCC5CN(C(=O)/C=C/CN(C)C)C5)c4n3)cc2)CCN1C [Example 228]
Tall-1 (pIC50) [1]: C (C represents a pIC50 value between 6 and 6.7 (IC50 between 1 μM and 200 nM))
JAK 1 (pKi) [2]: E (E represents a pKi value of 7 or below (Ki of 100 nM or above))
JAK 3 (pKi) [3]: B (B represents pKi value between 9 and 10 (Ki between 1 nM and 0.1 nM))
JAK3 (pKi)-JAK1 (pKi) [3]: A (A represents a value of 3 or above)
JAK 2 (pKi) [4]: E (E represents a pKi value of 7 or below (Ki of 100 nM or above))
Tyk 2 (pKi) [5]: E (E represents a pKi value of 7 or below (Ki of 100 nM or above))

C=CC(=O)N1CCN(CCn2c(=O)ccc3cnc(Nc4cnn(CCOCC)c4)nc32)[C@@H](C)C1 [Example 229]
Tall-1 (pIC50) [1]: B (B represents a pC50 value between 6.7 (included) and 7.5 (IC50 between 200 nM and 32 nM))
JAK 1 (pKi) [2]: E (E represents a pKi value of 7 or below (Ki of 100 nM or above))
JAK 3 (pKi) [3]: B (B represents pKi value between 9 and 10 (Ki between 1 nM and 0.1 nM))
JAK3 (pKi)-JAK1 (pKi) [3]: A (A represents a value of 3 or above)
JAK 2 (pKi) [4]: E (E represents a pKi value of 7 or below (Ki of 100 nM or above))
Tyk 2 (pKi) [5]: E (E represents a pKi value of 7 or below (Ki of 100 nM or above))

C=CC(=O)N1CCN(CCn2c(=O)ccc3cnc(Nc4cnn(CCOC(C)C)c4)nc32)[C@@H](C)C1 [Example 230]
Tall-1 (pIC50) [1]: B (B represents a pC50 value between 6.7 (included) and 7.5 (IC50 between 200 nM and 32 nM))
JAK 1 (pKi) [2]: E (E represents a pKi value of 7 or below (Ki of 100 nM or above))
JAK 3 (pKi) [3]: B (B represents pKi value between 9 and 10 (Ki between 1 nM and 0.1 nM))
JAK3 (pKi)-JAK1 (pKi) [3]: A (A represents a value of 3 or above)
JAK 2 (pKi) [4]: E (E represents a pKi value of 7 or below (Ki of 100 nM or above))
Tyk 2 (pKi) [5]: E (E represents a pKi value of 7 or below (Ki of 100 nM or above))

C=CC(=O)N1CCN(CCn2c(=O)ccc3cnc(Nc4cnn(C5CCN(C)CC5)c4)nc32)[C@@H](C)C1 [Example 231]
Tall-1 (pIC50) [1]: B (B represents a pC50 value between 6.7 (included) and 7.5 (IC50 between 200 nM and 32 nM))
JAK 1 (pKi) [2]: E (E represents a pKi value of 7 or below (Ki of 100 nM or above))
JAK 3 (pKi) [3]: B (B represents pKi value between 9 and 10 (Ki between 1 nM and 0.1 nM))
JAK3 (pKi)-JAK1 (pKi) [3]: A (A represents a value of 3 or above)
JAK 2 (pKi) [4]: E (E represents a pKi value of 7 or below (Ki of 100 nM or above))
Tyk 2 (pKi) [5]: E (E represents a pKi value of 7 or below (Ki of 100 nM or above))

C=CC(=O)N1CCN(CCn2c(=O)ccc3cnc(Nc4cnn(CC(F)F)c4)nc32)[C@@H](C)C1 [Example 232]
Tall-1 (pIC50) [1]: B (B represents a pC50 value between 6.7 (included) and 7.5 (IC50 between 200 nM and 32 nM))
JAK 1 (pKi) [2]: E (E represents a pKi value of 7 or below (Ki of 100 nM or above))
JAK 3 (pKi) [3]: A (A represents a pKi value≥10 (Ki≤0.1 nM))
JAK3 (pKi)-JAK1 (pKi) [3]: A (A represents a value of 3 or above)
JAK 2 (pKi) [4]: E (E represents a pKi value of 7 or below (Ki of 100 nM or above))
Tyk 2 (pKi) [5]: E (E represents a pKi value of 7 or below (Ki of 100 nM or above))

C=CC(=O)N1CCN(CCn2c(=O)ccc3cnc(Nc4cnn(C(C)(C)COC)c4)nc32)[C@@H](C)C1 [Example 233]
Tall-1 (pIC50) [1]: B (B represents a pC50 value between 6.7 (included) and 7.5 (IC50 between 200 nM and 32 nM))
JAK 1 (pKi) [2]: E (E represents a pKi value of 7 or below (Ki of 100 nM or above))
JAK 3 (pKi) [3]: B (B represents pKi value between 9 and 10 (Ki between 1 nM and 0.1 nM))
JAK3 (pKi)-JAK1 (pKi) [3]: A (A represents a value of 3 or above)
JAK 2 (pKi) [4]: E (E represents a pKi value of 7 or below (Ki of 100 nM or above))
Tyk 2 (pKi) [5]: E (E represents a pKi value of 7 or below (Ki of 100 nM or above))

C=CC(=O)N1CC(C(C)Cn2c(=O)ccc3cnc(Nc4ccc(N5CCN(C)CC5)cc4)nc32)C1 (stereo not drawn) [Example 234]
Tall-1 (pIC50) [1]: B (B represents a pC50 value between 6.7 (included) and 7.5 (IC50 between 200 nM and 32 nM))
JAK 1 (pKi) [2]: E (E represents a pKi value of 7 or below (Ki of 100 nM or above))
JAK 3 (pKi) [3]: B (B represents pKi value between 9 and 10 (Ki between 1 nM and 0.1 nM))
JAK3 (pKi)-JAK1 (pKi) [3]: A (A represents a value of 3 or above)
JAK 2 (pKi) [4]: E (E represents a pKi value of 7 or below (Ki of 100 nM or above))
Tyk 2 (pKi) [5]: E (E represents a pKi value of 7 or below (Ki of 100 nM or above))
